Where two headings read alike, the source gives them in different places.
Tests used:
[1] = rat
[2] = cited from earlier work
[3] = cited from earlier work; for Log Poct: octanol partition coefficient
[4] = rat, in vivo; cited from earlier work
[5] = Neutral fraction at pH 7.4 calculated from pKa; format: physicochemical
[6] = rat; remark: listed apart in the source
[7] = Octanol/water partition and distribution coefficients; settings: for Log Doct 7.4: octanol distribution coefficient, pH 7.4; for Log Poct: octanol partition coefficient
Choline transporter = settings: facilitated nutrients
[8] = ref Chou and Rowland [106]; cited from earlier work
[9] = plasma
Lat-1 = Lat-1 (Rattus norvegicus, UniProt Q63016)
Chain of Lat-1 (Q63016 whole entry): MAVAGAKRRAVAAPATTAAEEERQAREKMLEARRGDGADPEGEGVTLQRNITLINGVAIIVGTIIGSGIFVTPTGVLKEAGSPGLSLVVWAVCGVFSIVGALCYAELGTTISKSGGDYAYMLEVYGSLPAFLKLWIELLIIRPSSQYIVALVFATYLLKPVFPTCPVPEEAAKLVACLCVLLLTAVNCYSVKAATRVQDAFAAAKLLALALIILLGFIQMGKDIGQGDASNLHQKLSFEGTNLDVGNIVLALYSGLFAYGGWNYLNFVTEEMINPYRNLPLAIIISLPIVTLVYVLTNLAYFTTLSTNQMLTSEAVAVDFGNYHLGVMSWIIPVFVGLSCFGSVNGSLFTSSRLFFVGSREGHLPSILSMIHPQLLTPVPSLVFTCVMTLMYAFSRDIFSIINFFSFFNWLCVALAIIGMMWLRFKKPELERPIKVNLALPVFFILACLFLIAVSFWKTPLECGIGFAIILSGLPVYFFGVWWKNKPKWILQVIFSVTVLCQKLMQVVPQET
Chain of Lat-1 (Q794F9 whole entry partner): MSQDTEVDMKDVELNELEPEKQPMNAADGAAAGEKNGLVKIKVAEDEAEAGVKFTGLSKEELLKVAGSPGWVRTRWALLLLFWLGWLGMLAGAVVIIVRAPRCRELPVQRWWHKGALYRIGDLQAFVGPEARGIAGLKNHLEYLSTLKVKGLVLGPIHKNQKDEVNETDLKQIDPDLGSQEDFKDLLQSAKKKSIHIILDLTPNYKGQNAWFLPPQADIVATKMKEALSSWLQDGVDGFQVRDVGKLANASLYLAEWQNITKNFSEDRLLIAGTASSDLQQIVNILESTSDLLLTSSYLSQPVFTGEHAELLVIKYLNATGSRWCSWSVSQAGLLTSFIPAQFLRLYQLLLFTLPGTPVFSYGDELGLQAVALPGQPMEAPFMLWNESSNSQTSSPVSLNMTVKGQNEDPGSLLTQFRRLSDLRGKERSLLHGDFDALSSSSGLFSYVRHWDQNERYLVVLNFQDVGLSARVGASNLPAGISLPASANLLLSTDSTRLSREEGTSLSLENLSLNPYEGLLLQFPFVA

in vivo = settings: rat, pH 7.4
[10] = ref Hansch et al. [123], Avdeef [46] or other sources
[11] = neutral fraction at perfusion fluid pH 7.40, calculated from pKa
[12] = LAT1 substrates, tracer concentration
[13] = LAT1 substrates, tracer concentration, perfusion 15-30 s

In the case of `CCC1(CC)C(=O)NC(=O)NC1=O` [Barbital], the “Log Pc” value ([1]; in vivo, pH 7.4) is reported as −4.42, the “Log PoS” value ([1]; in vivo, pH 7.4) is reported as −2.32 and the Pc ([1]; in vivo, pH 7.4) is reported as 381 nm/s. For the same molecule, the PcS ([1]; in vivo, pH 7.4) was 0.0038 mL/s/g, the PoS ([1]; in vivo, pH 7.4) was 0.00477 mL/s/g and the “Log Po” value ([1]; in vivo, pH 7.4) was −4.32. The Po ([1]; in vivo, pH 7.4) was 477 nm/s, the “fu,.p” value ([2]; rat in vivo measurements) was 0.985 and the “Log Poct” value [3, 10] was 0.65. For the same molecule, the “Log Doct pH=7.4” value [3, 10] was 0.64, the “Brain Equilibration t1/2, Measured” value [4] was 3.27 min and the “fn (%)” value [5, 11] was 79.9%. The half-life [6] was 3.63 min and the half-life ([6]; plasma) was 3.6 min.

With `C[N+](C)(C)CCO` [Choline] the “Log Doct 7.4” value [7] was −3.70, the “Log PS” value (Choline transporter) was −2.89 and the PS (Choline transporter; S 20 s) was 0.0013 mL/s/g.

For `CN1C(=O)CN=C(c2ccccc2)c2cc(Cl)ccc21` [Diazepam], the “PS for liver membrane” value [8] is given as 0.4 mL/s/g and the “fn (%)” value ([5]; pH 7.4) is given as 100%.

With `OCCO` [Ethylene glycol] the “E of permeability markers” value [1] was 2–4%, the “BBB PS / PoS over the flow range” value ([1]; in vivo) was 4 - 7x 10^-4 and the “Log Pc” value ([1]; in vivo) was −5.24. For the same molecule, the “Log PoS” value ([1]; in vivo) was −3.24, the “PS Average used for normalization” value ([1]; in vivo) was 0.0006 mL/s/g and the Pc ([1]; in vivo) was 56.9 nm/s. For the same molecule, the PcS ([1]; in vivo) was 0.00057 mL/s/g, the PoS ([1]; in vivo) was 0.000569 mL/s/g and the “PoS, flow-corrected” value ([1]; in vivo) was 3–6 10^–4 mL/s/g. The “Log Po” value ([1]; in vivo) was −5.24, the Po ([1]; in vivo) was 56.9 nm/s and the “fu,.p” value ([2]; rat) was 1.00. The “Log Doct pH=7.4” value [3] was −1.36, the “Brain Equilibration t1/2, Calculated” value [9] was 21 min and the “Brain Equilibration t1/2, Measured” value [4] was 17 min. The “fn (%)” value ([5]; pH 7.4) was 100%.

With `N[C@@H](Cc1ccc(O)c(O)c1)C(=O)O` [L-DOPA] the LogPS (Lat-1; [12]) was −1.99, the PS (Lat-1; [13]) was 0.0102 mL/s/g and the “Log Doct 7.4” value [7] was −2.7. The “Log Poct” value [7] was −0.22.

In the case of `CC(C)C[C@H](N)C(=O)O` [L-Leucine], the LogPS (Lat-1; [12]) is reported as −1.45, the PS (Lat-1; [13]) is reported as 0.0354 mL/s/g and the “Log Doct 7.4” value [7] is reported as 0.73.

For `N[C@@H](Cc1ccccc1)C(=O)O` [L-Phenylalanine], the LogPS (Lat-1; [12]) was −1.108, the PS (Lat-1; [13]) was 0.078 mL/s/g and the “Log Doct 7.4” value [7] was −1.46. The “Log Poct” value [7] was 1.110.

In the case of `CCCC(C)C1(CC)C(=O)NC(=O)NC1=O` (stereo not shown) [Pentobarbital], the “Log Pc” value ([1]; in vivo, pH 7.4) is reported as −3.35, the “Log PoS” value ([1]; in vivo, pH 7.4) is reported as −1.22 and the Pc ([1]; in vivo, pH 7.4) is reported as 4500 nm/s. For the same molecule, the PcS ([1]; in vivo, pH 7.4) was 0.045 mL/s/g, the PoS ([1]; in vivo, pH 7.4) was 0.0599 mL/s/g and the “Log Po” value ([1]; in vivo, pH 7.4) was −3.22. For the same molecule, the Po ([1]; in vivo, pH 7.4) was 5990 nm/s, the “fu,.p” value ([2]; rat in vivo measurements) was 0.60 and the “Log Poct” value [3, 10] was 2.08. The “Log Doct pH=7.4” value [3, 10] was 2.01, the half-life (in vivo) was 1.15 min and the “fn (%)” value [5, 11] was 75.1%. The half-life [6] was 1.44 min and the half-life ([6]; plasma) was 1.4 min.

For `CC(C)C[C@H](CN)CC(=O)O` [Pregabalin], the LogPS (Lat-1; rat, in vivo, pH 7.4) was −3.01, the PS (Lat-1; rat, in vivo, pH 7.4) was 0.000976 mL/s/g and the “Log Doct 7.4” value [7] was −1.75. The “Log Poct” value [7] was 1.12.
